ChEMBL document CHEMBL1201862, “PubChem BioAssay data set” (2004)
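Five compound concentrations were applied to cells in 96-well plates for 48 hours; endpoints were derived by simple linear interpolation of the resulting dose-response curve. GI50 marks 50% less growth.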 The source made the active and inactive calls. Rule as the data show it: active = GI50 up to about 1.1 µM and inactive = higher. Where a SMILES comes first, the peptide text is derived from it. [ ]: non-standard residue; d: D form. Aoe = N[C@@H](CCCCCC(=O)[C@@H]1CO1)C(=O)O

Key:
Experiment in all cases: NCI tumour cell line growth inhibition, 48 h
786-0 = system: 786-0
A549 = system: A549
ACHN = system: ACHN
CAKI-1 = system: CAKI-1
DU-145 = system: DU-145
KM12 = system: KM12
MCF7 = system: MCF7
MDA-MB-435 = system: MDA-MB-435
NCI/ADR-RES = system: NCI/ADR-RES
OVCAR-3 = system: OVCAR-3
OVCAR-4 = system: OVCAR-4
SF-539 = system: SF-539
SK-MEL-28 = system: SK-MEL-28
SNB-19 = system: SNB-19
T47D = system: T47D
TK-10 = system: TK-10
UACC-257 = system: UACC-257
UACC-62 = system: UACC-62
PC-3 = system: PC-3
SK-MEL-2 = system: SK-MEL-2

Row | Structure (SMILES) | GI50 (786-0) | GI50 (A549) | GI50 (ACHN) | GI50 (CAKI-1) | GI50 (DU-145) | GI50 (KM12) | GI50 (MCF7) | GI50 (MDA-MB-435) | GI50 (NCI/ADR-RES) | GI50 (OVCAR-3) | GI50 (OVCAR-4) | GI50 (SF-539) | GI50 (SK-MEL-28) | GI50 (SNB-19) | GI50 (T47D) | GI50 (TK-10) | GI50 (UACC-257) | GI50 (UACC-62) | GI50 (PC-3) | GI50 (SK-MEL-2)
1 | COC1OC(CBr)C(OC(c2ccccc2)(c2ccccc2)c2ccccc2)C(OC(c2ccccc2)(c2ccccc2)c2ccccc2)C1OC(c1ccccc1)(c1ccccc1)c1ccccc1 (stereo not drawn) | 19.4 µM (inactive) | 38.9 µM (inactive) | 45.9 µM (inactive) | > 100 µM (inactive) | 76.2 µM (inactive) | > 100 µM (inactive) | 41.7 µM (inactive) | > 100 µM (inactive) | 51.6 µM (inactive) | 14.1 µM (inactive) | 18.3 µM (inactive) | 23.1 µM (inactive) | > 100 µM (inactive) | 24.3 µM (inactive) | 22.6 µM (inactive) | 28.3 µM (inactive) | > 100 µM (inactive) | > 100 µM (inactive) | – | –
2 | OCCNC1=Nc2ccc(Cl)cc2C(=S)N2CSC[C@@H]12 | > 100 µM (inactive) | > 100 µM (inactive) | > 100 µM (inactive) | > 100 µM (inactive) | > 100 µM (inactive) | > 100 µM (inactive) | > 100 µM (inactive) | > 100 µM (inactive) | > 100 µM (inactive) | > 100 µM (inactive) | > 100 µM (inactive) | > 100 µM (inactive) | > 100 µM (inactive) | > 100 µM (inactive) | > 100 µM (inactive) | – | – | > 100 µM (inactive) | > 100 µM (inactive) | > 100 µM (inactive)
3 | CN1C/C(=C\c2cccs2)C2=NC(=S)NC(c3cccs3)C2C1 (stereo not drawn) | > 100 µM (inactive) | 50.7 µM (inactive) | 64.9 µM (inactive) | > 100 µM (inactive) | > 100 µM (inactive) | 57 µM (inactive) | 35.6 µM (inactive) | 43.9 µM (inactive) | 44.4 µM (inactive) | 76.4 µM (inactive) | 29.5 µM (inactive) | – | 93.3 µM (inactive) | > 100 µM (inactive) | 24.9 µM (inactive) | 46.1 µM (inactive) | 36.6 µM (inactive) | 81.1 µM (inactive) | > 100 µM (inactive) | > 100 µM (inactive)
4 | CCOC(=O)C(Br)(C(N)=O)C1(O)OC(c2ccccc2)=C(Br)C1=O (stereo not drawn) | 23.3 µM (inactive) | 26.2 µM (inactive) | 17.5 µM (inactive) | 19.6 µM (inactive) | 44.6 µM (inactive) | > 100 µM (inactive) | 19.2 µM (inactive) | 30.5 µM (inactive) | 60.3 µM (inactive) | 25.8 µM (inactive) | – | 18.2 µM (inactive) | 80.9 µM (inactive) | > 100 µM (inactive) | 24.3 µM (inactive) | 16.7 µM (inactive) | > 100 µM (inactive) | 27.8 µM (inactive) | 19.2 µM (inactive) | 42.3 µM (inactive)
5 | CN(C)CCNC(=O)c1cccc2c1Oc1cccc([N+](=O)[O-])c1O2 | 19.2 µM (inactive) | 16 µM (inactive) | 18.7 µM (inactive) | 18.4 µM (inactive) | 17.7 µM (inactive) | 22.8 µM (inactive) | 19.1 µM (inactive) | 16.5 µM (inactive) | 19.1 µM (inactive) | 20.8 µM (inactive) | – | 18.2 µM (inactive) | 18.8 µM (inactive) | 30 µM (inactive) | 14.8 µM (inactive) | 21.4 µM (inactive) | 18.5 µM (inactive) | 18.1 µM (inactive) | 15.4 µM (inactive) | 23.5 µM (inactive)
6 | NC1OC(COC(=O)c2ccccc2)C(O)C(OC(=O)c2ccccc2)C1OC(=O)c1ccccc1 (stereo not drawn) | 15.5 µM (inactive) | 19.1 µM (inactive) | 19.3 µM (inactive) | – | 40.1 µM (inactive) | – | 23.9 µM (inactive) | 21.7 µM (inactive) | 33.3 µM (inactive) | 25.2 µM (inactive) | 35.5 µM (inactive) | – | 20.2 µM (inactive) | 33 µM (inactive) | 35.5 µM (inactive) | 61.9 µM (inactive) | 18.1 µM (inactive) | 14.1 µM (inactive) | 19.7 µM (inactive) | 29.9 µM (inactive)
7 | O=c1cc(N2CCCC2)[nH]c(=O)n1-c1cccc(Cl)c1 | > 100 µM (inactive) | – | > 100 µM (inactive) | > 100 µM (inactive) | > 100 µM (inactive) | > 100 µM (inactive) | > 100 µM (inactive) | > 100 µM (inactive) | > 100 µM (inactive) | > 100 µM (inactive) | > 100 µM (inactive) | > 100 µM (inactive) | – | > 100 µM (inactive) | > 100 µM (inactive) | > 100 µM (inactive) | > 100 µM (inactive) | > 100 µM (inactive) | > 100 µM (inactive) | > 100 µM (inactive)
8 | c1ccc(CNCCCCNCCCNCc2ccccc2)cc1 | 17.2 µM (inactive) | 17.4 µM (inactive) | 15.7 µM (inactive) | 13.6 µM (inactive) | 23.6 µM (inactive) | 20 µM (inactive) | > 100 µM (inactive) | 16.4 µM (inactive) | > 100 µM (inactive) | 20 µM (inactive) | 17.8 µM (inactive) | – | 16 µM (inactive) | 16.4 µM (inactive) | > 100 µM (inactive) | 19.8 µM (inactive) | 17.3 µM (inactive) | 16.6 µM (inactive) | 13.6 µM (inactive) | 31.6 µM (inactive)
9 | CC(=O)N1C(Nc2ccccn2)CCN1c1ccccc1 (stereo not drawn) | > 10 µM (inactive) | > 10 µM (inactive) | 7.36 µM (inactive) | > 10 µM (inactive) | > 10 µM (inactive) | – | > 10 µM (inactive) | > 10 µM (inactive) | > 10 µM (inactive) | > 10 µM (inactive) | > 10 µM (inactive) | > 10 µM (inactive) | > 10 µM (inactive) | > 10 µM (inactive) | > 10 µM (inactive) | > 10 µM (inactive) | > 10 µM (inactive) | – | > 10 µM (inactive) | > 10 µM (inactive)
10 | O=C1N[C@@H](Cc2ccccc2)C(=O)N2CCC[C@@H]2C(=O)N[C@@H](CCCCCC(=O)[C@@H]2CO2)C(=O)N[C@H]1Cc1ccccc1 [TRAPOXIN B] (cyclo(FF[dP][Aoe])) | 0.00294 µM (active) | 0.00265 µM (active) | 0.00124 µM (active) | 0.00157 µM (active) | 0.00136 µM (active) | 0.000735 µM (active) | 0.000553 µM (active) | 0.000546 µM (active) | 0.0475 µM (active) | 0.00122 µM (active) | 0.221 µM (active) | – | 0.000713 µM (active) | 0.103 µM (active) | 0.0034 µM (active) | 0.00368 µM (active) | – | 0.000435 µM (active) | 0.00209 µM (active) | 0.00116 µM (active)
11 | Cc1cccc2c1Oc1cc(Cl)ccc1C2NC(=O)CCN1CCOCC1 (stereo not drawn) | > 100 µM (inactive) | > 100 µM (inactive) | – | – | > 100 µM (inactive) | > 100 µM (inactive) | > 100 µM (inactive) | > 100 µM (inactive) | > 100 µM (inactive) | > 100 µM (inactive) | > 100 µM (inactive) | > 100 µM (inactive) | > 100 µM (inactive) | > 100 µM (inactive) | > 100 µM (inactive) | > 100 µM (inactive) | > 100 µM (inactive) | 50.1 µM (inactive) | > 100 µM (inactive) | –
12 | CC(NC(=O)C(C)C(=O)NCc1ccc(C(F)(F)F)cc1)C(N)=O (stereo not drawn) | > 100 µM (inactive) | > 100 µM (inactive) | > 100 µM (inactive) | > 100 µM (inactive) | > 100 µM (inactive) | > 100 µM (inactive) | > 100 µM (inactive) | > 100 µM (inactive) | > 100 µM (inactive) | – | – | > 100 µM (inactive) | – | 63.8 µM (inactive) | > 100 µM (inactive) | – | > 100 µM (inactive) | > 100 µM (inactive) | > 100 µM (inactive) | > 100 µM (inactive)
13 | CN(C)CCC(C(=O)C(C)(C)C)c1ccccn1 (stereo not drawn) | > 100 µM (inactive) | > 100 µM (inactive) | > 100 µM (inactive) | > 100 µM (inactive) | > 100 µM (inactive) | > 100 µM (inactive) | > 100 µM (inactive) | > 100 µM (inactive) | > 100 µM (inactive) | < 0.01 µM (active) | > 100 µM (inactive) | – | > 100 µM (inactive) | > 100 µM (inactive) | > 100 µM (inactive) | > 100 µM (inactive) | > 100 µM (inactive) | > 100 µM (inactive) | > 100 µM (inactive) | > 100 µM (inactive)
14 | CC(=O)OC1O[C@@H](C(C)(C)O)CC[C@@H]1[C@H]1CC[C@@]2(C)C3=C(CC[C@]12C)[C@@]1(C)C[C@@H](OC(=O)CC(C)(O)CC(=O)O)[C@H](OC(C)=O)C(C)(C)C1CC3 (stereo partly drawn) | 19.3 µM (inactive) | 17.2 µM (inactive) | 18 µM (inactive) | 15.8 µM (inactive) | 19.1 µM (inactive) | 21.9 µM (inactive) | 18.3 µM (inactive) | 16.8 µM (inactive) | 18.1 µM (inactive) | 18.6 µM (inactive) | 18 µM (inactive) | – | 16.3 µM (inactive) | 17.7 µM (inactive) | 19.8 µM (inactive) | 19.1 µM (inactive) | 17.5 µM (inactive) | 27.7 µM (inactive) | 17 µM (inactive) | 16.4 µM (inactive)
15 | c1cc(C[S+]2CCCC2)ccc1C[S+]1CCCC1 | > 100 µM (inactive) | 65.5 µM (inactive) | > 100 µM (inactive) | > 100 µM (inactive) | > 100 µM (inactive) | > 100 µM (inactive) | > 100 µM (inactive) | > 100 µM (inactive) | > 100 µM (inactive) | > 100 µM (inactive) | > 100 µM (inactive) | > 100 µM (inactive) | > 100 µM (inactive) | > 100 µM (inactive) | > 100 µM (inactive) | > 100 µM (inactive) | > 100 µM (inactive) | > 100 µM (inactive) | > 100 µM (inactive) | –
